{"source": "patent US6958360B2", "about": "“Attractant pheromone for the Colorado potato beetle” (The United States of America as represented by the …, priority 2001, dated 2005)", "key": {"[1]": {"test_system": "CPB adult antenna", "test": "Coupled GC/electroantennogram detection (GC/EAD, EAG)", "set-up": "species or system Leptinotarsa decemlineata", "method": "Vertical bars represent standard errors (N=6, 3 males and 3 females).\nGC/EAD analysis of volatile collections: One microlitre samples of volatile collections were injected into a Hewlett Packard™ Model 5890A gas chromatograph (GC) equipped with an HP-5 capillary column (crosslinked 5% PH ME Siloxane; film thickness 0.25 μm; length 30 m; i.d. 0.25 mm) and flame ionization detector (FID). The effluent from the column was split using a Gerstel™ GraphPack-3D/2 splitter with a ratio of ˜1 to the GC (FID): 4 to an electroantennogram preparation of a CPB adult (EAD). The EAD preparation was an adult CPB antenna removed and mounted between two glass capillary electrodes filled with 0.1M NaCl. Ag—AgCl wires in the glass capillaries. An effluent conditioning assembly to carry GC effluent over a CPB antennal preparation, hardware, and software for data collection and analyses using a computer were obtained from SYNTECH (Hilversum, the Netherlands). After an initial temperature of 50° C. held for 2 minutes following injection, the GC oven increased at 15° C./min to 235° C. which was held for 8 minutes.\nSensitivity of antennal olfactory receptors for the racemate and optical isomers of the male specific compound were tested using coupled GC/EAD and single sensillum recording techniques. GC/EAD tests involved injection of 1 μl of serial dilutions of 3,7-dimethyl-2-oxo-oct-6-ene-1,3-diol (CPB I)."}, "[2]": {"test_system": "Colorado potato beetle (CPB)", "test": "Open Y-track olfactometer behavioral bioassay, optical isomers vs solvent control", "format": "in vivo, Leptinotarsa decemlineata", "conditions": "for orientation preference (in words): serial source loads 0.0001 to 1.0 μg vs solvent control, male and female", "method": "Chemical blends and plant foliage were tested for behavioral activity in an open Y-track olfactometer modified after Visser and Piron (Visser, J. H., and P. G. M. Piron, Proceedings of the Section Experimental and Applied Entomology of the Netherlands Entomological Society Amsterdam, 9: 41-46 (1998)) and described in detail by Dickens (Dickens, J. C., Agric. Forest Entomol., 1: 47-54 (1999)). In brief, odorous stimuli emanating from volatile collections from CPB males feeding on potato plants or the male-specific compound on filter paper discs (2.5 cm dia.; Whatman™ #1 filter paper) in Ehrlenmeyer flasks were delivered to either side of the device. Hydrocarbon free air that was humidified by passing through distilled water carried the odor molecules to either arm of the bioassay apparatus. Treatments were replenished after 30 min of use in the bioassay apparatus. Airflow was regulated to 1 l/min by flowmeters. Experiments were conducted in a darkened room at 22° C. in which the only source of light was that associated with the bioassay device. For all bioassays, at least 20 males and 20 females were tested.\nVolatile collections from male CPB feeding for three hours on a potato plant and serial dilutions of the male specific compound were tested as 10 μl aliquots placed on a filter paper disc as described above. The male specific compound was tested at 1.0 μg/10 μl solvent (hexane) and in a dilution series ranging from 0.0001 to 1.0 μg/10 μl solvent.\nPrior to testing at age 7-14 days, unmated insects were held individually in 5.5 oz. cups, provided with fresh potato foliage on a continuous basis, and maintained under incubator conditions of a 16:8 light:dark cycle, 80-90% R.H., and “day” and “night” temperatures of 25° C. and 23° C., respectively. On the day of testing, insects were transferred to smaller 1 oz. cups and held for 1-3 hrs with moist filter paper but no foliage, then held in darkness for an additional 1-2 hrs.\nIndividual testing in a darkened room at 22° C. began by allowing the beetle to climb onto or be placed approximately midway up the vertical rod of the “T.” In response to a positive phototaxis to light from a flashlight mounted above the “T” and negative geotaxis, the beetles generally climbed upward. Once the insect began waving its antennae, presumably in response to test odors, its forward progress continued. Orientation was scored as soon as the test insect had moved completely from the horizontal to one of the 45 extension arms of the bioassay device. Following each test, the bioassay device was cleaned with acetone to remove contamination left by the insect. For any given series of tests, approximately half were done with the treatment and associated test apparatus on one side, and half were done with them on the other side.\nLaboratory bioassays were assessed for significant differences by the hypothesis on binomial proportions based on the standard normal approximation (Brase, C. H., and C. P. Brase (1983), Understanding Statistics, Lexington, Mass.: D. C. Heath)."}}, "data": [{"smiles": "CC(C)=CCC[C@](C)(O)C(=O)CO", "note": "[(S)-CPB I, (S)-3,7-dimethyl-2-oxo-oct-6-ene-1,3-diol]", "values": [{"measurement": "Mean EAG (in words)", "setting": "[1]; 10 ng injection, males and females combined", "value": "significantly greater for the (S)-enantiomer than the (R)-enantiomer"}, {"measurement": "EAD response to compound in volatile collections (in words)", "setting": "[1]; volatiles from potato plants / CPB feeding on plant", "value": "a large EAD was consistently present"}, {"measurement": "individuals attracted", "setting": "[2]; both sexes, from threshold through highest source load tested (1 μg)", "value": "80% to 90"}, {"measurement": "behavioral threshold, females", "setting": "[2]; female CPB, vs solvent control", "value": 0.01, "unit": "μg source load"}, {"measurement": "behavioral threshold, males", "setting": "[2]; male CPB, vs solvent control", "value": 0.001, "unit": "μg source load"}, {"measurement": "orientation preference (in words)", "setting": "[2]", "value": "attractive"}, {"measurement": "orientation preference (in words)", "setting": "[2]; listed as (S)-enantiomer", "value": "oriented preferentially"}]}]}
